Measurements from ChEMBL document CHEMBL1201862, “PubChem BioAssay data set” (2004).
Activity calls are given as the source filed them.

How the values were obtained:
[1] = molecular target: Cytochrome P450 2C19 (Homo sapiens, UniProt P33261); test: Cytochrome panel assay with activity outcomes. Panel member name: p450-cyp2c19 Compounds with AC50 equal or less than 10 uM are considered active; assay type: functional
[2] = molecular target: Cytochrome P450 2C9 (Homo sapiens, UniProt P11712)
[3] = molecular target: T1, Protein RecA (Mycobacterium tuberculosis, UniProt P9WHJ3); test: Fluorescence Cell-Free Homogeneous Dose Retest to Identify Inhibitors of RecA-Intein Splicing Activity. [Related pubchem assays (depositor defined):AID2097, AID2223, AID489010, AID492950]; assay type: functional
T1 sequence (P9WHJ3 whole entry): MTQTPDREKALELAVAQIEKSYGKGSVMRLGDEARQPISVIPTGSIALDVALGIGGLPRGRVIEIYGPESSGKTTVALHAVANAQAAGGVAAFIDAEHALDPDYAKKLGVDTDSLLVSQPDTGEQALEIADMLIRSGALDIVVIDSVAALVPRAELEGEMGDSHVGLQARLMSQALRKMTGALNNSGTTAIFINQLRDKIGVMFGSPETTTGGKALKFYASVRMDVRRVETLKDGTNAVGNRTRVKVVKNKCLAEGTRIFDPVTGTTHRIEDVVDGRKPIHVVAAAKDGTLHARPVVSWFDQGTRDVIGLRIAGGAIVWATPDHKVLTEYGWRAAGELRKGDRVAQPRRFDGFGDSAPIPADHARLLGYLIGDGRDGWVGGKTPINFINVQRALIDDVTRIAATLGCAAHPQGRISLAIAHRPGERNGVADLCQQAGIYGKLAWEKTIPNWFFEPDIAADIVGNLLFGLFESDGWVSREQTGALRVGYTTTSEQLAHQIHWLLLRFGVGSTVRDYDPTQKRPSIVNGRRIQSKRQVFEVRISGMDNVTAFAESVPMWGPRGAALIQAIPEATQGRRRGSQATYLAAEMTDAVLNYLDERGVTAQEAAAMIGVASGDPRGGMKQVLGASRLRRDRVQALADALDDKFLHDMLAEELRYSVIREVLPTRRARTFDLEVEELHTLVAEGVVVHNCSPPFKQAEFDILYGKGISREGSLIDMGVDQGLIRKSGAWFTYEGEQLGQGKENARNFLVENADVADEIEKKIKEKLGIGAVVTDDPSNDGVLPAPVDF

[4] = molecular target: T2, Replicative DNA helicase DnaB (Mycobacterium tuberculosis, UniProt P9WMR3); test: DnaB intein splicing inhibitors, dose response, biochemical, cell-free fluorescence (AID 449749); assay type: functional
T2 sequence (P9WMR3 whole entry): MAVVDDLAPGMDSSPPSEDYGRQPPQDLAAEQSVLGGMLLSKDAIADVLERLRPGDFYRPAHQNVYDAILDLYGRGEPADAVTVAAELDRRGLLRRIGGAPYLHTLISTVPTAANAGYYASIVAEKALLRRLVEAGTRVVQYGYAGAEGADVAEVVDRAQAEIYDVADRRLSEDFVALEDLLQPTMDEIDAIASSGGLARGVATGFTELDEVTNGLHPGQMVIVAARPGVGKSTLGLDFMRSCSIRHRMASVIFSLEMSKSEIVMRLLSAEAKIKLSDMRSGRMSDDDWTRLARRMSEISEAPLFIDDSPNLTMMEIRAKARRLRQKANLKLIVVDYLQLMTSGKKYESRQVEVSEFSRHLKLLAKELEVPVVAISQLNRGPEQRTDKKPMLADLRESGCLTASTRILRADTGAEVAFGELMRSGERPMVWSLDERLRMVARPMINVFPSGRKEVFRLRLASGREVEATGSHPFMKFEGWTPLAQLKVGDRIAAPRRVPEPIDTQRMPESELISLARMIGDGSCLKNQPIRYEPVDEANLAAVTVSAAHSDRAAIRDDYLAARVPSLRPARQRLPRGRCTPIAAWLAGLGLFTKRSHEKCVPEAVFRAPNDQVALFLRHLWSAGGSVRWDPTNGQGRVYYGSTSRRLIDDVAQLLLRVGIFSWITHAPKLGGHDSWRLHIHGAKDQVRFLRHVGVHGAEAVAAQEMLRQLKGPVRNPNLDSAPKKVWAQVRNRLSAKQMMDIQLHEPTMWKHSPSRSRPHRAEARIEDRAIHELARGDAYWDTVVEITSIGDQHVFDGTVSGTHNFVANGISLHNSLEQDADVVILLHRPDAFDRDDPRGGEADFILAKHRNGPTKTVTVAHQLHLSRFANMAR

[5] = molecular target: T3, Rac GTPase-activating protein 1 (Homo sapiens, UniProt Q9H0H5); test: MgcRacGAP GTPase-activating activity inhibitors, confirmation, biochemical, ADP Hunter fluorescence, primary and confirmatory (AID 624330); assay type: functional
T3 sequence (Q9H0H5 whole entry): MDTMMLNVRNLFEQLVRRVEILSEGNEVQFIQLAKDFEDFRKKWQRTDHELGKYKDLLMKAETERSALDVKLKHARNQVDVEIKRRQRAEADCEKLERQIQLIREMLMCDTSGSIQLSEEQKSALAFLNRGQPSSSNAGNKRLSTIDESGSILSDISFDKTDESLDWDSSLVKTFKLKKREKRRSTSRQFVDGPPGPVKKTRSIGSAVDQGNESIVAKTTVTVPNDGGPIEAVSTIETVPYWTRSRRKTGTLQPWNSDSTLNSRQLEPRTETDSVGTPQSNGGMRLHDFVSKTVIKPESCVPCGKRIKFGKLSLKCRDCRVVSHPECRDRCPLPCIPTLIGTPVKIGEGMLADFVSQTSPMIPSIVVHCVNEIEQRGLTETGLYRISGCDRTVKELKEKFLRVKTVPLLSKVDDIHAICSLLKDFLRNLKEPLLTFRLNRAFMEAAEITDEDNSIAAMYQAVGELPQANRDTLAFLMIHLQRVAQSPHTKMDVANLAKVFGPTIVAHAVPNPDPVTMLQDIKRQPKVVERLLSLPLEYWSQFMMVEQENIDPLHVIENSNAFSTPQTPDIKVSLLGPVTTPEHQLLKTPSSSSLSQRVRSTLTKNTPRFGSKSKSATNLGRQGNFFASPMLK

[6] = molecular target: Cytochrome P450 2D6 (Homo sapiens, UniProt P10635);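 also: CYP2D6 member of a cytochrome P450 panel assay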
[7] = molecular target: T4, Heat shock factor protein 1 (Mus musculus, UniProt P38532); test: inhibition of MG132-induced HSE-luciferase signal, confirmation, cell-based, NIH3T3, luminescence, dose retest (AID 2382); assay type: functional;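 also: NIH3T3 fibroblasts with HSF1-driven luciferase reporter stressed by proteasome inhibitor MG132; luminescence from HSF1-driven luciferase expression after 8 hours of MG132 stress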
T4 sequence (P38532 whole entry): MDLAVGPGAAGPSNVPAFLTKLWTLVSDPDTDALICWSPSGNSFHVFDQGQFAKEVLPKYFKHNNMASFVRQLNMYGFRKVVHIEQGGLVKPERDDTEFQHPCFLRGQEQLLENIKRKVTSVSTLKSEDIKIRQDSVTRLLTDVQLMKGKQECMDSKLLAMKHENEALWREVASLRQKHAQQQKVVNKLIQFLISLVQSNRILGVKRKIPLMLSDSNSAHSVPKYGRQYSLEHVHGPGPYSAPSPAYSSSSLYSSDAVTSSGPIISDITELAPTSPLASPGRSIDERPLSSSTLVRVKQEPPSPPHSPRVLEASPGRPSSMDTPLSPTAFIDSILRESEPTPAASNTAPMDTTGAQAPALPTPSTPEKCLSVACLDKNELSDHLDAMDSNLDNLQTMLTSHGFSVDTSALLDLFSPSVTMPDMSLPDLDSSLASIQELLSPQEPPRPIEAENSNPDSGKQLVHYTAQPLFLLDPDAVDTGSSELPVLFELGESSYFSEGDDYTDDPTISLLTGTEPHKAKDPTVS

[8] = cytotoxicity toward NIH3T3 fibroblasts, dose response, counter-screen, cell-based, ATP luminescence, mouse fibroblasts (AID 2010); assay type: functional;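 also: cells exposed to compound for about 90 hours before reading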
[9] = inhibitors of intracellular T. cruzi replication, confirmation, NIH3T3 host cells, beta-gal luminescence (AID 2044); assay type: functional, cell-based;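 also: intracellular parasites grown in NIH/3T3 mouse fibroblasts as host cells; luminescent beta-galactosidase reporter signal from transgenic T. cruzi replicating inside host cells; inhibitors lower the luminescence signal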
[10] = test system: Streptococcus; test: Group A Streptococcus viability loss, dose response, counter-screen for streptokinase expression inhibitor project, luminescence, BacTiterGlo (AID 1915); assay type: functional, organism-based;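 also: potency for reduction of bacterial viability or growth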
[11] = test system: Streptococcus sp. 'group A'; test: growth inhibition of control SK(-) GAS strain, dose response, counter-screen for streptokinase expression inhibitor project, luminescence, kanamycin, BacTiterGlo, confirmation (AID 1900); assay type: functional, organism-based
[12] = molecular target: T5, Streptokinase A (Streptococcus pyogenes serotype M1, UniProt P10520); test: S. pyogenes streptokinase expression inhibitors, potency, dose response, plasminogen activation absorbance, OD405 (AID 1914); assay type: functional, Streptococcus pyogenes M1 GAS;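 also: secreted streptokinase activity via plasminogen activation per viability signal from cell pellet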
T5 sequence (P10520 whole entry): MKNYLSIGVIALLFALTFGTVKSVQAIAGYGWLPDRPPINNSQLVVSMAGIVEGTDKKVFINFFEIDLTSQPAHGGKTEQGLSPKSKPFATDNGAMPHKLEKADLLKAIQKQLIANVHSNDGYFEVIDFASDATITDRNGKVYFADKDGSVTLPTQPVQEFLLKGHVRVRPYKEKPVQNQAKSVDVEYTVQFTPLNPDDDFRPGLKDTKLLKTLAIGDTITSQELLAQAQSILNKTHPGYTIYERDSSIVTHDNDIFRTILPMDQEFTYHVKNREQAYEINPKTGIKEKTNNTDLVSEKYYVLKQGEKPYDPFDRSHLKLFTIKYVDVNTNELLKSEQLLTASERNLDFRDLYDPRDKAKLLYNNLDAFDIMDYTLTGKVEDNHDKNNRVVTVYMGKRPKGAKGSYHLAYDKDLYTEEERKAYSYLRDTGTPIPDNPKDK

Cytochrome P450 2C9, sequence (P11712 whole entry): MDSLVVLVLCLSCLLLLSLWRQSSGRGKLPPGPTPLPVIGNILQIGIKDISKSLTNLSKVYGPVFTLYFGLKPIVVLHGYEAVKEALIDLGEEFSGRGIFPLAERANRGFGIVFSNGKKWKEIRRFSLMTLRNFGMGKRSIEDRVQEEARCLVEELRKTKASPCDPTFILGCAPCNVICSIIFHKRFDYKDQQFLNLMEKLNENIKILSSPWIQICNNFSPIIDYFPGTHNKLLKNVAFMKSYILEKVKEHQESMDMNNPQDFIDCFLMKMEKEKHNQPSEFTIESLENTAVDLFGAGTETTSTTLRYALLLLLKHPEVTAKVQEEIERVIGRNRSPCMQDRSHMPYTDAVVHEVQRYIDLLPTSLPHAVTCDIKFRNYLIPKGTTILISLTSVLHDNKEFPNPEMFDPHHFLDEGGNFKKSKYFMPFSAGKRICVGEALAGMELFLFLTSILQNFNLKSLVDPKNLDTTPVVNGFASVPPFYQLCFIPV
Cytochrome P450 2C19, sequence (P33261 whole entry): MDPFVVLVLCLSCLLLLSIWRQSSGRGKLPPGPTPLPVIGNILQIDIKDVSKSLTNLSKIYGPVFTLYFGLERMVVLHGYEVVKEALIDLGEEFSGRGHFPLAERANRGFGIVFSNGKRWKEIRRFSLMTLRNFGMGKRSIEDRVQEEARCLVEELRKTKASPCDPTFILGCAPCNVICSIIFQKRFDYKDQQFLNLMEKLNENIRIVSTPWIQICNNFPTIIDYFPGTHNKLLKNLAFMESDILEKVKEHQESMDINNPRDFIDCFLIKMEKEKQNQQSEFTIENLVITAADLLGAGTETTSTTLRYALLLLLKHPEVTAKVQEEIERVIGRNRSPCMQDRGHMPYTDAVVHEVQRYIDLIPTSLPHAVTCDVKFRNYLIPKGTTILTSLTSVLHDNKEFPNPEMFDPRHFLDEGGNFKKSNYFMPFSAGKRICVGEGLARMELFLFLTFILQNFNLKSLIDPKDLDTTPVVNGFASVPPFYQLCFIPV
Cytochrome P450 2D6, sequence (P10635 whole entry): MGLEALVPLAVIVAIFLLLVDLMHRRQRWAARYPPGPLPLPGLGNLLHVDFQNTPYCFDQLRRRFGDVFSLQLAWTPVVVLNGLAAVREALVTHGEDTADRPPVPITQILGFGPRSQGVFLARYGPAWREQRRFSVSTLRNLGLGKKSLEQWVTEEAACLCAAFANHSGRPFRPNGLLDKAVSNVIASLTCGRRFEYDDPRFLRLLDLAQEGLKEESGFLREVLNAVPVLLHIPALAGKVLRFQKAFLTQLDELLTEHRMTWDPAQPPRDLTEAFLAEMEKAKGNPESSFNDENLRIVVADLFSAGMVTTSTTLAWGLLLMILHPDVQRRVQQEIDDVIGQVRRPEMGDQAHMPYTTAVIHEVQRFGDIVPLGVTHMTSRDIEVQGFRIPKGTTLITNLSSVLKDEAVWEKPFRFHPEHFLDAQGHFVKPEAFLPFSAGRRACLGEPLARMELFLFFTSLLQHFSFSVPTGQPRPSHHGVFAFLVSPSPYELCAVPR

COc1cccc(C(=O)NCCN2CCOCC2)c1
AC50 ([1]; read-out: AC50): 20 µM (inconclusive)
AC50 [2]: 3.55 µM (inconclusive)

COC1=C(C)C(=O)c2c(c(COC(N)=O)c3n2C[C@@H]2[C@@H]3N2C)C1=O (stereo not given in full)
AC50 ([1]; read-out: AC50): 0.794 µM (inconclusive)

CC1=C(C)CC2(SC1)C(=O)N(c1ccccc1)N=C2N (stereo not given)
EC50 [3]: 3.4 µM (active)
AC50 [4]: 10.3 µM (active)

CCN1CCN(CC(O)COC(c2ccccc2)c2ccccc2C)CC1 (stereo not given)
IC50 [5]: 64.1 µM (active)

N#CC1=C(S)N(c2ccc(F)cc2)C(c2ccco2)NC1=O (stereo not given)
IC50 [5]: 84.4 µM (active)

Cc1n[nH]c2c1C1(CCOCC1)C(C#N)=C(N)O2
EC50 [3]: 2.83 µM (active)
AC50 [4]: 3.57 µM (active)

Cc1nc2cnc(Oc3cccc(Cl)c3)nc2n(Cc2ccc(F)cc2)c1=O
AC50 ([1]; read-out: AC50): 31.6 µM (inconclusive)

C[N@+]1(CCC(=O)c2ccccc2)CC[C@H]2CC[C@H](C2)C1
AC50 [1]: inconclusive

CC(=O)Nc1ccc(N=Nc2ccc(O)cc2)cc1
IC50 [5]: 27.1 µM (active)

O=C1C(Cl)=C(N2CCCCC2)C(=O)N1c1ccccc1Cl
EC50 [3]: 2.45 µM (active)
AC50 [4]: 4.64 µM (active)

CC1CCN(CCCn2c(=S)[nH]c3ccc(N4CCOCC4)cc3c2=O)CC1
AC50 [1]: inconclusive
AC50 [2]: 20 µM (inconclusive)
AC50 [6]: 22.4 µM (inconclusive)

O=C1Nc2ccccc2/C1=N/NS(=O)(=O)c1ccc(C(=O)O)cc1
AC50 [1]: inconclusive

Cc1cc(C)n(-c2ccc(Cl)c(C(=O)O)n2)n1
AC50 ([1]; read-out: AC50): 6.31 µM (inconclusive)
AC50 [2]: 4.47 µM (inconclusive)

CCS(=O)(=O)NC(C)C(c1cccs1)N1CCN(c2ccc(OC)cc2)CC1 (stereo not given)
IC50 [5]: 91.3 µM (active)

O=C(NC(=S)NCCC1=CCCCC1)c1cncc(Br)c1
EC50 [7]: > 195 µM (not active)

CCOC(=O)c1cc(NCc2cccs2)ccc1N1CCOCC1
IC50 [5]: 93 µM (active)

COCCNc1nc(-c2ccccc2Cl)nc2ccccc12
AC50 ([1]; read-out: AC50): 0.0316 µM (inconclusive)

COc1ccc(CN2CCNC(=O)C2CC(=O)NC2CC(C)(C)CC(C)(C)C2)cc1OC (stereo not given)
EC50 [7]: > 195 µM (not active)

CC(C)(C)c1ccccc1OCCN1CCCC1
EC50 [8]: > 60 µM (not active)
AC50 ([1]; read-out: AC50): 35.5 µM (inconclusive)
EC50 [9]: 1.35 µM (active)

CCN(CC)c1ccc(NC(=O)C2CCCC2)cc1
IC50 [5]: 63.5 µM (active)

O=S(=O)(N[C@H]1C[C@@H](NS(=O)(=O)OCC(Cl)(Cl)Cl)C2CCCCC21)OCC(Cl)(Cl)Cl (stereo not given in full)
EC50 [10]: 5.38 µM (active)
EC50 [3]: 50.9 µM (active)
AC50 [4]: 3.31 µM (active)
EC50 [11]: 2.45 µM (active)
EC50 [12]: 1.7 µM (active)

Cc1ccccc1-c1nc(CN(C)C(C)c2ccon2)c(C)o1 (stereo not given)
EC50 [3]: 1.15 µM (active)
AC50 [4]: 3.11 µM (active)

O=P(O)(COc1ccccc1)COc1ccccc1
AC50 ([1]; read-out: AC50): 28.2 µM (inconclusive)
AC50 [2]: 14.1 µM (inconclusive)

O=C(O)c1ccc([N+](=O)[O-])c2c1C(=O)c1ccccc1C2=O
EC50 [3]: 6.78 µM (active)
AC50 [4]: 29 µM (active)

COc1cc(/C=N/NC(=O)CNC(=O)c2cccs2)ccc1O
IC50 [5]: 42.2 µM (active)

O=C(Cc1cc(O)n[nH]1)N/N=C/c1cccc2ccccc12
EC50 [3]: 0.694 µM (active)
AC50 [4]: 4.55 µM (active)

COc1ccc(OC)c(CN2CCN(Cc3ccc(OC)c(OC)c3OC)CC2)c1
IC50 [5]: 77.7 µM (active)

CCOc1cc(/C=N/NC(=O)c2ccc(NC(=O)C3CC3)cc2)ccc1O
IC50 [5]: 72.4 µM (active)
